From ChEMBL document CHEMBL1136591, “Novel N1-(benzyl)cinnamamidine derived NR2B subtype-selective NMDA receptor antagonists” (Bioorg Med Chem Lett, 2003)

Target: T1, Glutamate NMDA receptor; GRIN1/GRIN2B (Homo sapiens, UniProt Q05586+Q13224)
Test: Inhibition of the response to glutamate/glycine in NR1a/NR2B expressing cells; call rule not given here
Type: functional, cell-based

T1 sequence (Q13224 whole entry, other chains not shown): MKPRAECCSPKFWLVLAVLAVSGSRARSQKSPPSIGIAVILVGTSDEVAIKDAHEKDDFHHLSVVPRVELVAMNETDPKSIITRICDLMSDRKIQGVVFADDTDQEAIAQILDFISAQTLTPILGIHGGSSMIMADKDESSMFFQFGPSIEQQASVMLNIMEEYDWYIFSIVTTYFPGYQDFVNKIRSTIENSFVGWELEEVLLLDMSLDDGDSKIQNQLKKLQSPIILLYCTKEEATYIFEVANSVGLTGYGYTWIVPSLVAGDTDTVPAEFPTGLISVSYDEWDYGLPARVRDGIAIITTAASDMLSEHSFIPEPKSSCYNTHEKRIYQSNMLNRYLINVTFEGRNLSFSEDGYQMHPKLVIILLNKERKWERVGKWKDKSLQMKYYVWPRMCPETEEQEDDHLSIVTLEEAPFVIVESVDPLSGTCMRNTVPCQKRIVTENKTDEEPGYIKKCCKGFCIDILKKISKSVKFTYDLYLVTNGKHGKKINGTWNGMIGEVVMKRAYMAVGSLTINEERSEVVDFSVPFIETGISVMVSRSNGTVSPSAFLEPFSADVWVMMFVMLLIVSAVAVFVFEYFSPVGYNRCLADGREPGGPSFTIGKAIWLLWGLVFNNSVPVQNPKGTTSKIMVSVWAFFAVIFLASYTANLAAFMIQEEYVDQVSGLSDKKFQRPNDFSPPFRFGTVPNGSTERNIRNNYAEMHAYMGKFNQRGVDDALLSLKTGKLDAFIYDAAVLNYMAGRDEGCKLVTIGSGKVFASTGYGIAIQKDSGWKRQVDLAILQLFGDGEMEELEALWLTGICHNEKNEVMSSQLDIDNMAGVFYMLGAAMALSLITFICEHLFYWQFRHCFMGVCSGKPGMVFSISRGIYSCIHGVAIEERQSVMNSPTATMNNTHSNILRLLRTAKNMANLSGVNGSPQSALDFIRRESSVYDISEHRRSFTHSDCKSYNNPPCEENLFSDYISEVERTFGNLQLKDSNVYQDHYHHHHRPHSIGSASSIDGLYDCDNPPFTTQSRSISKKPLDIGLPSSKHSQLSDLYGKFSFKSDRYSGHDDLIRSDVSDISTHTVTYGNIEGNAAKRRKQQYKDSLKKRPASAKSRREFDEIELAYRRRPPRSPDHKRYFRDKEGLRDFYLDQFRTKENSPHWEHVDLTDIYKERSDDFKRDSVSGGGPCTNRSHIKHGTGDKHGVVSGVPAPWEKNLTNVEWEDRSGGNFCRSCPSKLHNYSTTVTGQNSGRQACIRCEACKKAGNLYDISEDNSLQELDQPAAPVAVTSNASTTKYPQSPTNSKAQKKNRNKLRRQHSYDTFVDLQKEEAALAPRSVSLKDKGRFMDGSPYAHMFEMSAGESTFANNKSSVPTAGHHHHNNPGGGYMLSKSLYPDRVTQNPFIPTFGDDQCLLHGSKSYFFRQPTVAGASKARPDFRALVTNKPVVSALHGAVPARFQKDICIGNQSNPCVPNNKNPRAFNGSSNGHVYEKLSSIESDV

Question: For `N=C(/C=C/c1ccccc1)NCc1ccccc1`, which IC50 is on record?
Answer: 70 nM

Target: T1, Glutamate NMDA receptor; GRIN1/GRIN2B
Test: Displacement of [3H]ifenprodil binding to recombinant human NR1a/NR2B receptors expressed in L(tk-) cells
Type: cell-based

Question: `N=C(/C=C/c1ccccc1)NCc1cccc(C(F)(F)F)c1` was tested. Which Ki did it give?
Answer: 31 nM

Question: How did the Ki turn out when `N=C(NCc1ccccc1Cl)c1ccc2ccccc2c1` was run?
Answer: 7.3 nM

Question: With `COc1ccccc1C/N=C(\N)c1ccc2ccccc2c1` as the molecule, how does the Ki read?
Answer: 1.3 nM

Question: With `N=C(/C=C/c1ccccc1)NCc1cc(Cl)ccc1Cl` as the molecule, how does the Ki read?
Answer: 2.7 nM

Question: For `N=C(/C=C/c1ccccc1)NCc1ccccc1C(F)(F)F`, which Ki is on record?
Answer: 1.4 nM

Question: With `N=C(/C=C/c1ccccc1)NCc1ccccc1OC(F)(F)F` as the molecule, how does the Ki read?
Answer: 0.6 nM

Question: For `N=C(/C=C/c1ccccc1)NCc1ccccc1Cl`, which Ki is on record?
Answer: 1 nM

Question: With `N=C(/C=C/c1ccccc1)NCc1cccc(Cl)c1` as the molecule, how does the Ki read?
Answer: 0.8 nM

Question: `N=C(NCc1cccc(Cl)c1)c1ccc2ccccc2c1` was tested. Which Ki did it give?
Answer: 1.6 nM

Question: With `N=C(/C=C/c1cccc(Cl)c1)NCc1ccccc1` as the molecule, how does the Ki read?
Answer: 12 nM

Question: For `N=C(/C=C/c1ccccc1)NCc1cc(Cl)cc(Cl)c1`, which Ki is on record?
Answer: 1.4 nM

Question: `N=C(/C=C/c1ccc(F)c(F)c1)NCc1ccccc1` was tested. Which Ki did it give?
Answer: 1.7 nM

Question: With `N=C(/C=C/c1ccccc1)NCc1ccc(Cl)cc1` as the molecule, how does the Ki read?
Answer: 77 nM

Question: `N=C(/C=C/C1CCCCC1)NCc1ccccc1` was tested. Which Ki did it give?
Answer: 19 nM

Question: Which Ki does the source give for `N=C(/C=C/c1ccc(Cl)cc1)NCc1ccccc1` here?
Answer: 52 nM

Question: How did the Ki turn out when `N=C(/C=C/c1ccccc1)NCCCc1ccccc1` was run?
Answer: 120 nM

Question: For `N=C(NCc1ccccc1)c1ccc2ccccc2c1`, which Ki is on record?
Answer: 32 nM

Question: `COc1cccc(C/N=C(N)/C=C/c2ccccc2)c1` was tested. Which Ki did it give?
Answer: 1.9 nM

Question: For `N=C(NCCc1ccccc1)c1ccccc1`, which Ki is on record?
Answer: 55 nM

Question: Which Ki does the source give for `C[C@@H](CN1CCC(Cc2ccccc2)CC1)[C@@H](O)c1ccc(O)cc1` here?
Answer: 10 nM

Question: For `N=C(CCc1ccccc1)NCc1ccccc1`, which Ki is on record?
Answer: 530 nM

Question: Which Ki does the source give for `N=C(/C=C/c1ccccc1)NCCc1ccccc1` here?
Answer: 97 nM

Question: For `N=C(/C=C/c1ccc(F)cc1)NCc1ccccc1`, which Ki is on record?
Answer: 5.7 nM

Question: For `N=C(/C=C/c1ccccc1)NCc1cccc(Cl)c1Cl`, which Ki is on record?
Answer: 3.6 nM

Question: With `NC(=NCc1ccccc1)c1ccccc1` as the molecule, how does the Ki read?
Answer: 10000 nM

Question: `N=C(/C=C/c1ccccc1Cl)NCc1ccccc1` was tested. Which Ki did it give?
Answer: 93 nM

Question: How did the Ki turn out when `CCOc1ccccc1C/N=C(N)/C=C/c1ccccc1` was run?
Answer: 0.5 nM

Tested on: Glutamate NMDA receptor GRIN1/GRIN2A (Homo sapiens)
Test: Inhibition of the response to glutamate/glycine in NR1a/NR2A expressing cells (No effect uM)

Question: Which IC50 does the source give for `N=C(/C=C/c1ccccc1)NCc1ccccc1` here?
Answer: Not Active
